Tests used:
[1] = Phase I/II trial in new onset T1D: adverse events judged possibly or probably related to drug; assay type: in vivo, human; settings: for Adverse events possibly or probably related to drug: URI / Adverse events possibly or probably related to drug: Vomiting / Adverse events possibly or probably related to drug: Hematologic, Grade 1 Neutropenia / Adverse events possibly or probably related to drug: Abdominal Pain / Adverse events possibly or probably related to drug: Congestion / Adverse events possibly or probably related to drug: Cough / Adverse events possibly or probably related to drug: Diarrhea / Adverse events possibly or probably related to drug: Dizziness / Adverse events possibly or probably related to drug: Gastrointestinal (Total) / Adverse events possibly or probably related to drug: Hematologic, Anemia / Adverse events possibly or probably related to drug: Hot flashes associated with viral illness / Adverse events possibly or probably related to drug: Nausea / Adverse events possibly or probably related to drug: Nausea with IV placement / Adverse events possibly or probably related to drug: Neurologic, Headache / Adverse events possibly or probably related to drug: Other Viral Illness / Adverse events possibly or probably related to drug: Other infectious/immune, Pump site infection / Adverse events possibly or probably related to drug: Other, Hypoglycemia / Adverse events possibly or probably related to drug: Other, Urticaria/anaphylaxis: daily oral; for Adverse events possibly or probably related to drug: Hematologic, Grade 1 Neutropenia: neutrophil count < lower limit of normal but above 1500/mm^3
Excerpt: The primary efficacy measure was changes in pro-insulin to C-peptide ratios as a marker of β cell ER stress. The secondary objectives of the study were to elucidate the relationship between primary dose and markers of endoplasmic reticulum (ER) stress, polyamine concentrations, glycemic, and immunologic outcomes in persons with new onset T1D, and to characterize the dietary polyamine intake and urinary polyamine excretion of persons with recent-onset T1D. Secondary efficacy measures included other biomarkers of β cell stress, stimulated C-peptide values, and changes in T-cell subsets. This study was double-blind, placebo-controlled, 2:1 random assigned, phase I/II clinic trial for individuals with type 1 diabetes. The blinded dose-ranging study enrolled persons with new onset T1D with documented continued residual C-peptide production. […] After a 3 month wash-out period, the durability of effect was assessed. […] Males and females 12-40 years of age with a clinical diagnosis of T1D within 2-8 months of the time of visit 2; 2. […] Positive for any one of the following diabetes-related autoantibodies (mIAA, GADA, IA-2A, or ZnT8A); 4. Treatment naïve of any immunomodulatory agent; 5. […] Presence of any psychiatric disorder that will affect ability to participate in study, including psychiatric impairment or current use of anti-psychotic medication; 3. […] Chronic illness known to affect glucose metabolism (e.g. Cushing syndrome, polycystic ovarian disorder, cystic fibrosis) or taking medications that affect glucose metabolism (e.g. steroids, metformin); 5. Inability to swallow pills; 6. Hematologic abnormalities at screening (anemia, leukopenia (particularly neutropenia), or thrombocytopenia); 7. […] Female participants of child-bearing age must not be pregnant and agree to use an effective form of birth control or be abstinent during the study period; 9. BMI >95% for age and sex. […] The enrollment cohorts were as follows: […] [table] […] Possible drug-related expected AEs included mild-moderate nausea/vomiting/abdominal pain and diarrhea, moderate headache, upper respiratory infections, a pump site infection, and mild anemia. […] Adverse events judges by masked study investigators as possibly or probably related to drug are showing in Table 3.

[2] = system: urinary polyamines; experiment: Phase I/II trial in new onset T1D: urinary polyamines (first morning urine, HPLC); assay type: in vivo, human; settings: 3 months
Experimental: This study was double-blind, placebo-controlled, 2:1 random assigned, phase I/II clinic trial for individuals with type 1 diabetes. The blinded dose-ranging study enrolled persons with new onset T1D with documented continued residual C-peptide production. […] After a 3 month wash-out period, the durability of effect was assessed. [table]

NCCCC(N)(C(=O)O)C(F)F (centres unmarked) [eflornithine, 2,5-diamino-2-(difluoromethyl) pentanoic acid]
Adverse events possibly or probably related to drug: URI ([1]; 500 mg/m^2 (n = 6)): 0
Adverse events possibly or probably related to drug: Vomiting ([1]; 500 mg/m^2 (n = 6)): 0
Adverse events possibly or probably related to drug: Hematologic, Grade 1 Neutropenia ([1]; 500 mg/m^2 (n = 6)): 0
Adverse events possibly or probably related to drug: Abdominal Pain ([1]; 750 mg/m^2 (n = 7)): 2
Adverse events possibly or probably related to drug: Congestion ([1]; 750 mg/m^2 (n = 7)): 2
Adverse events possibly or probably related to drug: Cough ([1]; 750 mg/m^2 (n = 7)): 0
Adverse events possibly or probably related to drug: Diarrhea ([1]; 750 mg/m^2 (n = 7)): 0
Adverse events possibly or probably related to drug: Dizziness ([1]; 750 mg/m^2 (n = 7)): 2
Adverse events possibly or probably related to drug: Gastrointestinal (Total) ([1]; 750 mg/m^2 (n = 7)): 5
Adverse events possibly or probably related to drug: Hematologic, Anemia ([1]; 750 mg/m^2 (n = 7)): 1
Adverse events possibly or probably related to drug: Hot flashes associated with viral illness ([1]; 750 mg/m^2 (n = 7)): 0
Adverse events possibly or probably related to drug: Nausea ([1]; 750 mg/m^2 (n = 7)): 3
Adverse events possibly or probably related to drug: Nausea with IV placement ([1]; 750 mg/m^2 (n = 7)): 1
Adverse events possibly or probably related to drug: Neurologic, Headache ([1]; 750 mg/m^2 (n = 7)): 0
Adverse events possibly or probably related to drug: Other Viral Illness ([1]; 750 mg/m^2 (n = 7)): 1
Adverse events possibly or probably related to drug: Other infectious/immune, Pump site infection ([1]; 750 mg/m^2 (n = 7)): 0
Adverse events possibly or probably related to drug: Other, Hypoglycemia ([1]; 750 mg/m^2 (n = 7)): 0
Adverse events possibly or probably related to drug: Other, Urticaria/anaphylaxis ([1]; 750 mg/m^2 (n = 7)): 1
Adverse events possibly or probably related to drug: URI ([1]; 750 mg/m^2 (n = 7)): 2
Adverse events possibly or probably related to drug: Vomiting ([1]; 750 mg/m^2 (n = 7)): 0
Adverse events possibly or probably related to drug: Hematologic, Grade 1 Neutropenia ([1]; 750 mg/m^2 (n = 7)): 0
Adverse events possibly or probably related to drug: Abdominal Pain ([1]; 1000 mg/m^2 (n = 6)): 1
Adverse events possibly or probably related to drug: Congestion ([1]; 1000 mg/m^2 (n = 6)): 1
Adverse events possibly or probably related to drug: Cough ([1]; 1000 mg/m^2 (n = 6)): 1
Adverse events possibly or probably related to drug: Diarrhea ([1]; 1000 mg/m^2 (n = 6)): 0
Adverse events possibly or probably related to drug: Dizziness ([1]; 1000 mg/m^2 (n = 6)): 0
Adverse events possibly or probably related to drug: Gastrointestinal (Total) ([1]; 1000 mg/m^2 (n = 6)): 2
Adverse events possibly or probably related to drug: Hematologic, Anemia ([1]; 1000 mg/m^2 (n = 6)): 2
Adverse events possibly or probably related to drug: Hot flashes associated with viral illness ([1]; 1000 mg/m^2 (n = 6)): 1
Adverse events possibly or probably related to drug: Nausea ([1]; 1000 mg/m^2 (n = 6)): 1
Adverse events possibly or probably related to drug: Nausea with IV placement ([1]; 1000 mg/m^2 (n = 6)): 0
Adverse events possibly or probably related to drug: Neurologic, Headache ([1]; 1000 mg/m^2 (n = 6)): 2
Adverse events possibly or probably related to drug: Other Viral Illness ([1]; 1000 mg/m^2 (n = 6)): 0
Adverse events possibly or probably related to drug: Other infectious/immune, Pump site infection ([1]; 1000 mg/m^2 (n = 6)): 1
Adverse events possibly or probably related to drug: Other, Hypoglycemia ([1]; 1000 mg/m^2 (n = 6)): 0
Adverse events possibly or probably related to drug: Other, Urticaria/anaphylaxis ([1]; 1000 mg/m^2 (n = 6)): 0
Adverse events possibly or probably related to drug: URI ([1]; 1000 mg/m^2 (n = 6)): 2
Adverse events possibly or probably related to drug: Vomiting ([1]; 1000 mg/m^2 (n = 6)): 0
Adverse events possibly or probably related to drug: Hematologic, Grade 1 Neutropenia ([1]; 1000 mg/m^2 (n = 6)): 0
Tolerability ([1]; 3-month course of oral eflornithine, children and adults with recent-onset T1D): well tolerated with a favorable AE profile
Severity of adverse events noted ([1]; daily oral doses of 125, 250, 500, 750, and 1000 mg/m^2, drug or placebo): Mild and moderate AEs
Unexpected drug-related effects ([1]; individuals on active drug, daily oral doses of 125, 250, 500, 750, and 1000 mg/m^2): No unexpected effects judged related to drug
Change in urinary polyamines with increasing drug dose across groups ([2]; 125-1000 mg/m^2): Decreases in urinary polyamines
3-month urinary Decarboxylated AdoMet, Least Square Means ([2]; Drug Dose 125): 133.0 µmol/g
3-month urinary Putrescine, Least Square Means ([2]; Drug Dose 125): 127.9 µmol/g
3-month urinary Decarboxylated AdoMet, Least Square Means ([2]; Drug Dose 250): 87.7 µmol/g
3-month urinary Putrescine, Least Square Means ([2]; Drug Dose 250): 78.0 µmol/g
3-month urinary Decarboxylated AdoMet, Least Square Means ([2]; Drug Dose 500): 114.3 µmol/g
3-month urinary Putrescine, Least Square Means ([2]; Drug Dose 500): 41.8 µmol/g
3-month urinary Decarboxylated AdoMet, Least Square Means ([2]; Drug Dose 750): 116.0 µmol/g
3-month urinary Putrescine, Least Square Means ([2]; Drug Dose 750): 56.6 µmol/g
3-month urinary Decarboxylated AdoMet, Least Square Means ([2]; Drug Dose 1000): 165.7 µmol/g
3-month urinary Putrescine, Least Square Means ([2]; Drug Dose 1000): 35.7 µmol/g

From patent US20260137642A1 (CANCER PREVENTION PHARMACEUTICALS, INC., priority 2021, published 2026)
